One assay relates to IPC-81 rat AML cells. Description: Anti-AML activity, WST-1 viability (Example 72). Conditions: IPC81, IPC-81 cells. The class given is cell-based. Summed up:
(§1)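 Rat IPC-81 cells in DMEM with 10% horse serum and Molm13 cells in RPMI with 10% FBS, seeded at 150 000 cells/ml with compound dilution series. After 22 h exposure, WST-1 added for a further 2 h; absorbance read at 450 nm (620 nm reference) as viability.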
For orientation: Tetrazolium dyes change colour on reduction, which living cells bring about.

Another assay deals with Molm13 cells. As to the kind of experiment: Anti-AML activity, WST-1 viability (Example 72). Type of assay: cell-based. Conditions: Homo sapiens, Molm 13 cells, WST-1. Summed up: as §1

Like-named read-outs stand apart in the source and are kept apart here.

Broadly, the IC50 is the concentration at which inhibition is half-maximal. Consider `COc1cccc2c1[n+]([O-])c1cccc(O)c1[n+]2O` [Example 5a, 1-hydroxy-6-methoxyphenazine 5.10-dioxide, reference compound], for which the IC50 came to 3200 nM with IPC-81 rat AML cells (2% O2, 24 h of incubation, WST-1, read-out: IPC-81 IC50 2% O2); 2400 nM in the assay with IPC-81 rat AML cells (20% O2, 24 h of incubation, WST-1, read-out: IPC-81 IC50 20% O2); 1100 nM in the assay on Molm13 cells (2% O2, 24 h of incubation, read-out: Molm 13 IC50 2% O2); 1400 nM in the assay on Molm13 cells (20% O2, 24 h of incubation, read-out: Molm 13 IC50 20% O2).
